Measured values reported in US8952024B2, “Herbicidal pyrimidone derivatives” (E I du Pont de Nemours and Company, priority 2009, dated 2015).
Like-named read-outs stand apart in the source and are kept apart here.

Experiments:
Experiment in all cases: Test B pre-/postemergence plant response
Format in all cases: in vivo
[1] = test system: goosegrass (Eleusine indica); settings: for pest or weed control at 31 g/ha: 31 g ai/ha; for pest or weed control at 125 g/ha: 125 g ai/ha
Procedure, shortened: (§1)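 Steps: sow seed in loam–sand soil and spray preemergence, or grow plants in peat-based medium to 1–4 leaves (2–18 cm) and spray postemergence; formulation is non-phytotoxic solvent plus surfactant; hold in greenhouse 13–15 days; score visually vs controls, 0 = no effect, 100 = complete control.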

[2] = test system: pigweed (Amaranthus retroflexus); settings: for pest or weed control at 31 g/ha: 31 g ai/ha; for pest or weed control at 125 g/ha: 125 g ai/ha
Procedure, shortened: as §1

kochia (Kochia scoparia) = settings: for pest or weed control at 31 g/ha: 31 g ai/ha; for pest or weed control at 125 g/ha: 125 g ai/ha
Procedure, shortened: as §1

[3] = test system: morningglory (Ipomoea coccinea); settings: for pest or weed control at 125 g/ha: 125 g ai/ha
Procedure, shortened: as §1

[4] = test system: wheat (Triticum aestivum); settings: for plant injury at 31 g/ha: 31 g ai/ha; for plant injury at 125 g/ha: 125 g ai/ha
Procedure, shortened: as §1

[5] = test system: green foxtail (Setaria viridis)
Procedure, shortened: as §1

[6] = 62 g ai/ha, postemergence, 0 is no effect, 100 is complete control, 13 to 15 days
[7] = Preemergence, 250 g ai/ha, 0 to 100 scale

SMILES: COCCCn1c(-c2ccccc2)ncc(C(=O)C2=C(O)CCCC2=O)c1=O [Compound 81, 5-[(2-hydroxy-6-oxo-cyclohexen-1-yl)carbonyl]-3-(3-methoxypropyl)-2-phenyl-4(3H)-pyrimidinone]
- Goosegrass plant response rating (0 to 100 scale) [1, 6]: 70
- pest or weed control at 31 g/ha ([1]; Eleusine indica, post-emergence, postemergence, scale 0 to 100, 0 is no effect, 100 is complete control, read-out: Plant response rating, Goosegrass): 65%
- pest or weed control at 125 g/ha ([1]; Eleusine indica, post-emergence, Postemergence, visual rating after 13 to 15 days, scale 0 (no effect) to 100 (complete control)): 70%
- pest or weed control at 250 g/ha ([1]; Eleusine indica, post-emergence, Postemergence, 250 g ai/ha, scale 0 to 100 (0 no effect, 100 complete control), read-out: Plant response rating, Goosegrass): 80%
- pest or weed control at 31 g/ha ([1]; Eleusine indica, pre-emergence, Preemergence, scale 0 to 100 (0 no effect, 100 complete control), read-out: Plant response rating, Goosegrass): 98%
- pest or weed control at 62 g/ha ([1]; Eleusine indica, pre-emergence, Preemergence, 62 g ai/ha, scale 0 to 100, 0 no effect, 100 complete control, read-out: Plant response rating, Goosegrass): 98%
- pest or weed control at 125 g/ha ([1]; Eleusine indica, pre-emergence, Preemergence, scale 0 to 100, 0 no effect, 100 complete control, read-out: Plant response rating, Goosegrass): 100%
- Goosegrass plant response rating [1, 7]: 100
- Pigweed plant response rating (0 to 100 scale) [2, 6]: 100
- pest or weed control at 31 g/ha ([2]; Amaranthus retroflexus, post-emergence, postemergence, scale 0 to 100, 0 is no effect, 100 is complete control, read-out: Plant response rating, Pigweed): 98%
- pest or weed control at 125 g/ha ([2]; Amaranthus retroflexus, post-emergence, Postemergence, visual rating after 13 to 15 days, scale 0 (no effect) to 100 (complete control)): 100%
- pest or weed control at 250 g/ha ([2]; Amaranthus retroflexus, post-emergence, Postemergence, 250 g ai/ha, scale 0 to 100 (0 no effect, 100 complete control), read-out: Plant response rating, Pigweed): 100%
- pest or weed control at 31 g/ha ([2]; Amaranthus retroflexus, pre-emergence, Preemergence, scale 0 to 100 (0 no effect, 100 complete control), read-out: Plant response rating, Pigweed): 100%
- pest or weed control at 62 g/ha ([2]; Amaranthus retroflexus, pre-emergence, Preemergence, 62 g ai/ha, scale 0 to 100 (0 no effect, 100 complete control), read-out: Plant response rating, Pigweed): 100%
- pest or weed control at 125 g/ha ([2]; Amaranthus retroflexus, pre-emergence, Preemergence, scale 0 to 100, 0 no effect, 100 complete control, read-out: Plant response rating, Pigweed): 100%
- Pigweed plant response rating [2, 7]: 100
- Kochia plant response rating (0 to 100 scale) (kochia (Kochia scoparia); [6]): 80
- pest or weed control at 31 g/ha (kochia (Kochia scoparia); Bassia scoparia, post-emergence, postemergence, scale 0 to 100, 0 is no effect, 100 is complete control, read-out: Plant response rating, Kochia): 75%
- pest or weed control at 125 g/ha (kochia (Kochia scoparia); Bassia scoparia, post-emergence, Postemergence, visual rating after 13 to 15 days, scale 0 (no effect) to 100 (complete control)): 90%
- pest or weed control at 250 g/ha (kochia (Kochia scoparia); Bassia scoparia, post-emergence, Postemergence, 250 g ai/ha, scale 0 to 100 (0 no effect, 100 complete control), read-out: Plant response rating, Kochia): 100%
- pest or weed control at 31 g/ha (kochia (Kochia scoparia); Bassia scoparia, pre-emergence, Preemergence, scale 0 to 100 (0 no effect, 100 complete control), read-out: Plant response rating, Kochia): 45%
- pest or weed control at 62 g/ha (kochia (Kochia scoparia); Bassia scoparia, pre-emergence, Preemergence, 62 g ai/ha, scale 0 to 100 (0 no effect, 100 complete control), read-out: Plant response rating, Kochia): 55%
- pest or weed control at 125 g/ha (kochia (Kochia scoparia); Bassia scoparia, pre-emergence, Preemergence, scale 0 to 100, 0 no effect, 100 complete control, read-out: Plant response rating, Kochia): 65%
- Kochia plant response rating (kochia (Kochia scoparia); [7]): 70
- Morningglory plant response rating (0 to 100 scale) [3, 6]: 90
- pest or weed control at 31 g/ha ([3]; Ipomoea, post-emergence, 31 g ai/ha, postemergence, scale 0 to 100, 0 is no effect, 100 is complete control, read-out: Plant response rating, Morningglory): 75%
- pest or weed control at 125 g/ha ([3]; Ipomoea, post-emergence, Postemergence, visual rating after 13 to 15 days, scale 0 (no effect) to 100 (complete control)): 100%
- pest or weed control at 250 g/ha ([3]; Ipomoea, post-emergence, Postemergence, 250 g ai/ha, scale 0 to 100 (0 no effect, 100 complete control), read-out: Plant response rating, Morningglory): 100%
- pest or weed control at 62 g/ha ([3]; Ipomoea, pre-emergence, Preemergence, 62 g ai/ha, scale 0 to 100, 0 no effect, 100 complete control, read-out: Plant response rating, Morningglory): 65%
- pest or weed control at 125 g/ha ([3]; Ipomoea, pre-emergence, Preemergence, scale 0 to 100, 0 no effect, 100 complete control, read-out: Plant response rating, Morningglory): 80%
- Morningglory plant response rating [3, 7]: 95
- Wheat plant response rating (0 to 100 scale) [4, 6]: 20
- Wheat plant response rating [4, 7]: 0
- plant injury at 31 g/ha ([4]; Triticum aestivum, post-emergence, postemergence, scale 0 to 100, 0 is no effect, 100 is complete control, read-out: Plant response rating, Wheat): 5%
- plant injury at 125 g/ha ([4]; Triticum aestivum, post-emergence, Postemergence, visual rating after 13 to 15 days, scale 0 (no effect) to 100 (complete control)): 25%
- plant injury at 250 g/ha ([4]; Triticum aestivum, post-emergence, Postemergence, 250 g ai/ha, scale 0 to 100 (0 no effect, 100 complete control), read-out: Plant response rating, Wheat): 25%
- plant injury at 31 g/ha ([4]; Triticum aestivum, pre-emergence, Preemergence, scale 0 to 100 (0 no effect, 100 complete control), read-out: Plant response rating, Wheat): 0%
- plant injury at 62 g/ha ([4]; Triticum aestivum, pre-emergence, Preemergence, 62 g ai/ha, scale 0 to 100 (0 no effect, 100 complete control), read-out: Plant response rating, Wheat): 0%
- plant injury at 125 g/ha ([4]; Triticum aestivum, pre-emergence, Preemergence, scale 0 to 100, 0 no effect, 100 complete control, read-out: Plant response rating, Wheat): 0%
- Foxtail, Green plant response rating (0 to 100 scale) [5, 6]: 85
- Foxtail, Green plant response rating [5, 7]: 100
- pest or weed control at 31 g/ha ([5]; Setaria viridis, post-emergence, 31 g ai/ha, postemergence, scale 0 to 100, 0 is no effect, 100 is complete control, read-out: Plant response rating, Foxtail, Green): 5%
- pest or weed control at 125 g/ha ([5]; Setaria viridis, post-emergence, Postemergence, 125 g ai/ha, visual rating after 13 to 15 days, scale 0 (no effect) to 100 (complete control)): 95%
